# Patent US20020091139A1 (DAMON TODD HOLDINGS, L.L.C., priority 1997, published 2002)
# Key:
# human lung = conditions: ex vivo human lung; cited from earlier work
# symptomatic asthmatics = experiment: Double blind placebo-controlled 30-week trial of HCQ in moderate symptomatic asthma; type: in vivo, human
# Source text: Symptomatic asthmatics (mean duration>11 years) on stable doses of at least 6 puffs of inhaled steroid per day and p.r.n. bronchodilator (BD) were studied. […] Changes from baseline mean FEV-1 comprised the primary efficacy variable. Other objective variables included daily peak flows, BD usage and setum IgE level; symptom scores and physician global (safety and tolerance) assessments were also obtained. Subjective efficacy variables (rated from 0-3) include breathing restrictions (wheezing, coughing, chest tightness and/or breathlessness), revived need for BD at 6 hours, and nocturnal asthma.
# [1] = tested on: T-cells and monocytes; human macrophages; conditions: cited from earlier work
# influenza and adenovirus = conditions: personal communication; cited from earlier work
# [2] = tested on: steroid-dependent asthmatics (SDA) and non-steroid-dependent asthmatics (NSDA); experiment: Follow-up observations of asthmatics treated long-term with HCQ (SDA and NSDA groups); type: in vivo, human
# Source text: Follow-up observations carried out over the last four years among patients treated with HCQ continue to encourage further research. In Table I and II, data concerning the course of 23 steroid-dependent asthmatics (SDA) who have been followed for at least six months on therapy is presented. Spirometric data from these patients is summarized on page 2 of Table I. In the summary, two data groups are reported: the first includes all data points generated and compares each time point with t=0; the second is restricted to the 17 patients for whom data is complete at all time points. The findings are similar for both groups: both FVC and FEV-1 increase both a significant amount (about 10%) and to a degree that is statistically significant as well (using Wilcoxon Signed-Rank probability testing). These increases occurred despite a taper in prednisone outlined in Table I and detailed in Table II. Average daily oral steroid dosage was reduced by 60%, while objective spirometric flow measures and general health improved markedly.
# Changes in severity of asthma in non-steroid-dependent asthmatics (NSDA) are depicted in Table III. In Table III, spirometric flow data is presented. […] Probability testing (Wilcoxon Signed-Rank) in this group achieves significant change from baseline measures by month six and continued improvement is noted throughout the time of treatment.
# 2] […] In neither the NSDA group (Table I) nor in the SDA group (Table II) did spirometric flows (as measured by FEV-1) improve to a statistically significant degree at three months. […] In Table IV, data regarding the frequency of rescue-intervention in the NSDA group is reviewed. […] The course of patient, presented in Table V is illustrative of the reproducibility of the delay in onset of action seen in severe asthmatics. This patient was started on HCQ due to very labile asthma requiring frequent ER visits and oral steroid bursts (see Table VI). On HCQ they did better, but became pregnant (against medical advice) and the drug was discontinued. Subsequently, they did quite poorly necessitating restart of alternate-day oral steroids which were maintained during the latter part of their pregnancy. HCQ was restarted at their request following delivery. Again, no clear effect in the person was noted after three months, but after seven months substantial improvement was noted despite appreciable reduction in the dose of their alternate-daily oral steroids.
# In patients with normal IgE levels, changes were not significant either in amount (19%) nor by statistical criteria. Significant declines in IgE were virtually completely confined to that segment of the patients who entered treatment with elevated IgE levels. […] These clinical observations are supported by in vitro studies carried out recently by Seggev and co-workers. […] J Immunol 1993;150(8):62A.
# [3] = tested on: neutrophil superoxide production; conditions: also in peripheral blood monocytes; cited from earlier work
# HIV virus = conditions: T cells and monocytes; cited from earlier work
# platelet aggregation = conditions: cited from earlier work
# [4] = tested on: severe symptomatic non-steroid dependent and steroid-dependent asthmatics; experiment: Open label 28-week trial of HCQ in severe asthma; type: in vivo, human; conditions: for mean IgE level: ten patients
# Experimental: Annals of Allergy 1992;68(1):80 (abstract #40). The initial trial involved four severe symptomatic non-steroid dependent and seven steroid-dependent asthmatics in an open label 28-week trial at doses of 300-400 mg/d. Evaluation measures included daily symptom diary scores of six symptoms, subjective global evaluation, spirometric flow studies, and cumulative monthly steroid dosages.
# [5] = steroid-dependent asthmatics, at least six months on therapy
# [6] = group as a whole, 28 weeks, 300-400 mg/d, p<0.01
# [7] = non-steroid-dependent asthmatics, p<0.05
# [8] = steroid-dependent patients, not significant
smiles,measurement,setting,value
"CCN(CCO)CCCC(C)Nc1ccnc2cc(Cl)ccc12 (stereo not shown) [HCQ, Hydroxychloroquine]",histamine release,human lung,inhibits
same,leukotriene release,human lung,inhibits
same,tolerability,symptomatic asthmatics; 30 weeks,well tolerated without notable side-effects
same,patients requiring oral steroid rescue interventions,symptomatic asthmatics; HCQ group n=8 (4 on placebo),2 patients
same,mean IgE level,"symptomatic asthmatics; HCQ group, baseline",240 lU/ml
same,mean IgE level,"symptomatic asthmatics; HCQ group, on therapy",125 lU/ml
same,evening peak flows rise,"symptomatic asthmatics; HCQ group, p<0.04",14.2%
same,mean IgE level decline,"symptomatic asthmatics; HCQ group, p<0.05",48%
same,BD usage fall,"symptomatic asthmatics; bronchodilator usage, HCQ group, p<0.03",18.6%
same,mean FEV-1 increase,"symptomatic asthmatics; last 2 visits on therapy vs baseline, HCQ group n=8, p<0.05",10.8%
same,effect on cholesterol,symptomatic asthmatics; sparing of HDL levels,mild hypocholesterolemic effects
same,release of IL-1 and IL-6,[1]; T-cells and monocytes in vitro,inhibit
same,release of tumor necrosis factor,[1]; human macrophages in vitro,inhibit
same,infection by influenza and adenovirus,influenza and adenovirus,inhibits
same,forced vital capacity and FEV-1,"[2]; 11 non-steroid-dependent asthmatics, significant from month six",very significant improvements
same,rescue-interventions (normalized rates),"[2]; NSDA group, until after three months therapy",no significant fall
same,decrease in serum IgE levels,"[2]; patients in general, pre- vs post-treatment",~40%
same,change in serum IgE levels,"[2]; patients with normal IgE levels, not significant",19%
same,onset of significant effects,[2]; severe asthmatics,only after three months
same,reduction of average daily oral steroid dosage,[2]; steroid-dependent asthmatics,60%
same,FEV-1 increase,[2]; [5],about 10%
same,FVC increase,[2]; [5],about 10%
same,neutrophil superoxide production and release,[3],markedly reduce
same,replication of HIV virus,HIV virus,actively inhibits
same,platelet aggregation,platelet aggregation,inhibit
same,effect on plasma theophylline levels,[4]; drug interaction,no significant effect
same,mean IgE level,"[4]; during treatment, p<0.05",339 IU/ml
same,mean FEV-1 increase,[4]; [6],17%
same,mean FVC increase,[4]; [6],10%
same,mean of each of six symptom scores,"[4]; group as a whole, p<0.05",declined significantly
same,mean FEV-1 rise,[4]; [7],32%
same,mean FVC rise,[4]; [7],19%
same,mean symptom scores for four of five symptoms,[4]; [7],declined from baseline
same,mean IgE level,[4]; pretreatment,645 IU/ml
same,cumulative mean monthly steroid dosage required,"[4]; steroid-dependent patients, at entry",383 mg
same,cumulative mean monthly steroid dosage required,"[4]; steroid-dependent patients, at week 28",191 mg
same,decrease of cumulative mean monthly steroid dosage required,"[4]; steroid-dependent patients, entry to week 28, p<0.01",50%
same,mean FEV-1 increase,[4]; [8],9%
same,mean FVC increase,[4]; [8],7%
same,symptom scores,"[4]; steroid-dependent patients, p<0.05",two of five symptom scores improved
